# Source: ChEMBL document CHEMBL4422673, “Discovery, synthesis and characterization of a series of (1-alkyl-3-methyl-1H-pyrazol-5-yl)-2-(5-aryl-2H-tetrazol-2-yl)acetamides as novel GIRK1/2 potassium channel activators” (Bioorg Med Chem Lett, 2019)
# Active and inactive are the calls of the source. The calls are words filed in the database; no cut-off is given here.
# Tests used:
# [1] = biological target: T1, Kir3.1/Kir3.2 (Homo sapiens, UniProt P48051+P48549); assay: Activation of human GIRK1/2 expressed in HEK293 cells co-expressing rat mGlu8 by thallium flux assay; assay type: cell-based
# T1 sequence (P48549 whole entry): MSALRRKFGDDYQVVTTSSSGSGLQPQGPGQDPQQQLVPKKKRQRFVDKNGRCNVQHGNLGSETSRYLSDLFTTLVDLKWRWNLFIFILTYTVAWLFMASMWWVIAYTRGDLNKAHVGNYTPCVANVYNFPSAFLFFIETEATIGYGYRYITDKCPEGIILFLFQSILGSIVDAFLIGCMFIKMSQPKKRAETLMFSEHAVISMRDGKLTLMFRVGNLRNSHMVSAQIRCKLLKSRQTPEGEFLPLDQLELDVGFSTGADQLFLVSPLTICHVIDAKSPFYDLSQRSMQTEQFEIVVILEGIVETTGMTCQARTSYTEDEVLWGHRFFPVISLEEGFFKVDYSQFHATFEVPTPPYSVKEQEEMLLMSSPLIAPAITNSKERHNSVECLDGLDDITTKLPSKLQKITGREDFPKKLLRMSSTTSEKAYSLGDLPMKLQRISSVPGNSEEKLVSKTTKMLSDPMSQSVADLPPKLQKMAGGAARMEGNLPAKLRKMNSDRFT
# T1 sequence (P48051 whole entry): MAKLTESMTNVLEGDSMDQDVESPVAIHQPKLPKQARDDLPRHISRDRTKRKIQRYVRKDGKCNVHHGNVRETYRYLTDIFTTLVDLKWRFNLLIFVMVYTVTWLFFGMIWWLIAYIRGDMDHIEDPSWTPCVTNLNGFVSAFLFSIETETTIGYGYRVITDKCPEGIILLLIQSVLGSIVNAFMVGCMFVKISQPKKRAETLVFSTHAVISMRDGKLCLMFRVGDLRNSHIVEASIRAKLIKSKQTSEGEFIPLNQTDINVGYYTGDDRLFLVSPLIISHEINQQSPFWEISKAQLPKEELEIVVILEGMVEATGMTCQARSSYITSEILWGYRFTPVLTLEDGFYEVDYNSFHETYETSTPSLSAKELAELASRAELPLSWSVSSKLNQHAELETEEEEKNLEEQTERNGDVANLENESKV
# [2] = biological target: Kir3.1/Kir3.2 (Homo sapiens) (UniProt P48549+P48051); assay: Activation of human GIRK1/2 expressed in HEK293 cells co-expressing rat mGlu8 by thallium flux assay relative to control; assay type: cell-based
# [3] = biological target: Kir3.1/Kir3.4 (Homo sapiens) (UniProt P48549+P48544); assay: Activation of human GIRK1/4 expressed in HEK293 cells co-expressing rat mGlu8 by thallium flux assay relative to control; assay type: cell-based
# [4] = biological target: T2, Kir3.1/Kir3.4 (Homo sapiens, UniProt P48544+P48549); assay: (§1) Activation of human GIRK1/4 expressed in HEK293 cells co-expressing rat mGlu8 by thallium flux assay; assay type: cell-based
# T2 sequence (P48549 whole entry): T1 sequence (P48549 whole entry)
# T2 sequence (P48544 whole entry): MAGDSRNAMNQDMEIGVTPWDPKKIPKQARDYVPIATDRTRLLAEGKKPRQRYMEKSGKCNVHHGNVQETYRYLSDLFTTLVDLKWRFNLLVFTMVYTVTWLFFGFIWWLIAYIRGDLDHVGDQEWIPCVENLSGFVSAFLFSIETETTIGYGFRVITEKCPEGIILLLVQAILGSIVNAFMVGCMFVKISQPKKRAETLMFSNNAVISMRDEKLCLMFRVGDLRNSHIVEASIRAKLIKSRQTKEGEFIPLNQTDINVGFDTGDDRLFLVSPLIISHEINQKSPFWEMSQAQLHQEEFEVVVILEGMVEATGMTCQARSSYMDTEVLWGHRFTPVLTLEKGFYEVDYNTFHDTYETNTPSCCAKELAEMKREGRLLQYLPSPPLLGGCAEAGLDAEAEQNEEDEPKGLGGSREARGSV
# [5] = biological target: T3, Kir3.1/Kir3.4 (Homo sapiens, UniProt P48549+P48544); assay: as §1; assay type: cell-based; conditions: hek293
# T3 sequence (P48549 whole entry): T1 sequence (P48549 whole entry)
# T3 sequence (P48544 whole entry): T2 sequence (P48544 whole entry)
# [6] = Fraction unbound in human plasma; assay type: ADME, cell-free
# [7] = Stability in mouse plasma; assay type: ADME, cell-free
# [8] = Clearance in human liver microsomes
SMILES,EC50 [1] [nM],Emax [2] [%],Emax [3],EC50 [4] [nM],EC50 [5],Fu [6] [%],Stability [7],CLhep predicted [8] [mL/min/kg]
Cc1cc(NC(=O)Cn2cc(-c3ccccc3)cn2)n(C2CCCCC2)n1,65,72,52%,348,,,,
Cc1cc(NC(=O)Cn2nnc(-c3ccnc(F)c3)n2)n(C2CCCCC2)n1,441,95,68%,1340,,,,
Cc1cc(NC(=O)Cn2nnc(-c3ccccc3)n2)n(Cc2ccccc2)n1,495,74,48%,848,,,,
Cc1cc(NC(=O)Cc2coc(-c3ccccc3)n2)n(C2CCCCC2)n1,> 11000,> 69,22%,3980,,,,
Cc1cc(NC(=O)Cn2nnc(-c3ccccc3)n2)n(C2CCS(=O)(=O)CC2)n1,> 10000,> 25,inactive,,Not Active,,,
Cc1cc(NC(=O)Cn2nnc(-c3ccccc3F)n2)n(C2CCCCC2)n1,187,88,60%,447,,,,
Cc1cc(NC(=O)Cn2nnc(-c3cc(Cl)cc(Cl)c3)n2)n(C2CCCCC2)n1,980,82,51%,2120,,,,
CC1CC1c1cc(NC(=O)Cn2nnc(-c3ccccc3)n2)n(C2CCCCC2)n1 (configuration not stated),843,78,> 19%,> 10000,,,,
CC1(c2cc(NC(=O)Cn3nnc(-c4ccccc4)n3)n(C3CCCCC3)n2)CC1,> 10000,> 10,inactive,,Not Active,,,
Cc1cc(NC(=O)Cn2nnc(-c3ccc(F)cc3)n2)n(C2CCCCC2)n1,180,92,74%,634,,,,
Cc1cc(NC(=O)Cn2nnc(-c3ccccc3)n2)n(C2CCCC2)n1,163,105,84%,612,,,,
Cc1cc(NC(=O)Cc2csc(-c3ccccc3)n2)n(C2CCCCC2)n1,1330,44,> 18%,> 3000,,,,
Cc1cc(NC(=O)Cn2nnc(-c3cccc(C(F)(F)F)c3)n2)n(C2CCCCC2)n1,183,86,57%,850,,,,
Cc1cc(NC(=O)Cn2nnc(-c3ccccc3)n2)n(-c2ccccc2)n1,3020,66,25%,4090,,,,
Cc1cc(NC(=S)Cn2nnc(-c3ccccc3)n2)n(C2CCCCC2)n1,623,80,36%,1260,,< 0.06,Unstable,18.9
Cc1cc(NC(=O)Cc2nnc(-c3ccccc3)s2)n(C2CCCCC2)n1,> 3000,> 60,> 21%,> 10000,,,,
Cc1cc(NC(=O)Cc2cccc(-c3ccccc3)c2)n(C2CCCCC2)n1,370,72,> 51%,> 4000,,,,
Cc1cc(NC(=O)Cn2nnc(-c3cccnc3)n2)n(C2CCCCC2)n1,1930,96,80%,4910,,,,
Cc1cc(NC(=O)Cn2nnc(-c3ccccc3)n2)n(C2CC2)n1,> 5000,> 78,> 39%,> 10000,,,,
Cc1cc(NC(=O)Cn2nnc(C3CC3)n2)n(C2CCCCC2)n1,> 3000,> 68,> 25%,> 10000,,,,
Cc1cc(NC(=O)Cn2nnc(-c3ccc(C(F)(F)F)cc3)n2)n(C2CCCCC2)n1,241,94,50%,448,,,,

SMILES,EC50 [1] [nM],Emax [2] [%],Emax [3],EC50 [4] [nM],EC50 [5],Fu [6] [%],Stability [7],CLhep predicted [8] [mL/min/kg]
Cc1cc(NC(=O)Cc2ccc(-c3ccc(Cl)c(Cl)c3)cc2)n(C2CCCCC2)n1,4470,49,11%,4350,,,,
O=C(Cn1nnc(-c2ccccc2)n1)NC1CC2CCC1C2 (configuration not stated),1980,13,7%,2760,,,,
Cc1cc(NC(=O)Cc2ccc(-c3ccccc3)cn2)n(C2CCCCC2)n1,1520,36,inactive,,Not Active,,,
Cc1cc(NC(=O)Cn2nnc(-c3ccccc3)n2)n(C(C)C)n1,556,107,> 96%,> 4000,,,,
Cc1cc(NC(=O)Cn2nnc(-c3ccccc3)n2)n(C2CCOCC2)n1,435,115,109%,2040,,,,
Cc1cc(NC(=O)Cc2ncc(-c3ccccc3)o2)n(C2CCCCC2)n1,631,72,27%,1130,,,,
Cc1cc(NC(=O)Cn2nnc(-c3cccc(F)n3)n2)n(C2CCCCC2)n1,> 3000,> 83,> 38%,> 10000,,,,
Cc1ccc(-c2nnn(CC(=O)Nc3cc(C)nn3C3CCCCC3)n2)cc1,111,86,64%,408,,,,
Cc1cc(NC(=O)Cn2nnc(-c3ccccn3)n2)n(C2CCCCC2)n1,14600,81,> 41%,> 33000,,,,
COc1cccc(-c2nnn(CC(=O)Nc3cc(C)nn3C3CCCCC3)n2)c1,117,76,40%,299,,,,
Cc1cc(NC(=O)Cc2ccc(-c3ccccc3)cc2)n(C2CCCCC2)n1,1660,69,20%,1820,,,,
Cc1cc(NC(=O)Cn2nnc(-c3ccccc3)n2)n(C2CCC(C)(C)CC2)n1,> 221,> 19,inactive,,Not Active,,,
CCC(C)n1nc(C)cc1NC(=O)Cn1nnc(-c2ccccc2)n1 (configuration not stated),> 5000,> 69,> 20%,> 10000,,,,
Cc1cc(NC(=O)Cn2ccc(-c3ccccc3)n2)n(C2CCCCC2)n1,511,88,49%,998,,,,
O=C(Cn1nnc(-c2ccccc2)n1)Nc1cc(C2CC2)nn1C1CCCCC1,271,45,15%,659,,,,
Cc1cc(NC(=O)Cn2nnc(-c3ccccc3)n2)n(CC(F)(F)F)n1,> 6000,> 105,> 97%,> 10000,,,,
Cc1cccc(-c2nnn(CC(=O)Nc3cc(C)nn3C3CCCCC3)n2)c1,129,93,63%,435,,,,
Cc1cc(NC(=O)Cn2nnc(-c3cccc(C#N)c3)n2)n(C2CCCCC2)n1,183,80,55%,619,,,,
Cc1cc(NC(=O)Cn2nnc(-c3ccc(Cl)c(C)c3)n2)n(C2CCCCC2)n1,712,89,51%,1510,,,,
COc1ccc(-c2nnn(CC(=O)Nc3cc(C)nn3C3CCCCC3)n2)cc1,175,90,65%,779,,,,
